Measured values: patent publication US20250144083A1, “METHODS AND COMPOSITIONS FOR TREATING CANCER IN TAXANE-RESISTANT PATIENTS” (MODRA PHARMACEUTICALS B.V., priority 2022, published 2025)
Values joined by “and” are separate entries in the source; they are usually repeats but may differ in a detail not shown here. Equal entries are not always repeated. “Also recorded” adds a separate entry of the source. Where two headings read alike, the source gives them in different places.

Legend:
Format in all cases: cell-based
[1] = test system: DU-145 prostate cancer cells; test: 3D clonogenic assay, parental DU-145; conditions: for IC50: Homo sapiens
Method: (§1) For the single agent efficacy experiment, a master stock solution of cabazitaxel was prepared by dissolving compound powder in DMSO at a concentration of 10 mM. From this a working stock solution of 0.1 mM (330-fold the highest test concentration) was prepared. Small aliquots of this solution were stored at −20° C. On each day of an experiment, a frozen aliquot of the working stock solution was thawed and stored at room temperature prior to and during treatment. First, serial half-log dilutions of the working stock solution were prepared in DMSO. These dilutions were then diluted 1:22 into cell culture medium in an intermediate dilution plate. Finally, 10 μl taken from the intermediate dilution plate were transferred to 140 μl/well of the final assay plate. Thus, the DMSO working stock was diluted 1:330, and the DMSO concentration in the assay was 0.3% v/v.
(§2) For combination experiments, working stock solutions of docetaxel, ritonavir, elacridar, and cabazitaxel were prepared in DMSO at concentrations of 660-fold the highest test concentration used. Small aliquots of this stock solution were stored at −20° C. On each day of an experiment, a frozen aliquot of the working stock solutions was thawed and stored at room temperature prior to and during treatment. First, 1:2 dilutions of 660-fold concentrated working stocks were done in DMSO (in case of monotherapy controls), or equal amounts of the compound working stocks were mixed (in case of drug combinations). Then, different dilutions of these 330-fold concentrated solutions were done in DMSO to give a 8*2 matrix combination layout. The DMSO dilutions were further diluted 1:22 into cell culture medium (IMDM, supplemented with 20% (v/v) fetal calf serum, 50 μg/ml gentamicin) in an intermediate dilution plate. Finally, 10 μl taken from the intermediate dilution plate were transferred to 140 μl of cells and medium per well of the final assay plate. Thus, the DMSO dilutions used for the mono- and the combination-treatment were diluted 1:330, and the DMSO concentration in the assay was 0.3% v/v.
(§3) DU-145 DOC10 was generated from DU-145 and 22Rv1 DOC8 was generated from 22Rv1. 22Rv1 was obtained from American Type Culture Collection (ATCC, Rockville, MD, USA), whereas DU-145 was obtained from National Cancer Institute (NCI, Bethesda, MD, USA).
(§4) Tumour cell lines were grown at 37° C. in a humidified atmosphere with 5% CO2 in RPMI 1640 medium (Biochrom) supplemented with 10% (v/v) fetal calf serum and 50 μg/ml gentamicin. Docetaxel resistant sublines were cultured in the presence of 8 nM (22Rv1) or 10 nM docetaxel (DU-145). The cells were routinely passaged once or twice weekly and maintained in culture for up to 20 passages. For the assay, cells were harvested using TrypLE and the percentage of viable cells was determined by the CASY TT cell counter (OMNI Life Science).
(§5) The clonogenic assay was carried out in a 96 well plate format using ultra low attachment plates. For each test, cells were prepared and assay plates were prepared as follows: each test well contained a layer of semi-solid medium with tumour cells (50 μl), and a second layer of medium supernatant with or without test compound (100 μl). The cell layer consisted of 2·10^3 to 3·10^3 tumour cells per well, which were seeded in 50 μl/well cell culture medium (IMDM, supplemented with 20% (v/v) fetal calf serum, 50 μg/ml gentamicin, and 0.4% (w/v) agar). After 24 h, the soft-agar layer was covered with 90 μl of the same culture medium without agar, and 10 μl of control medium or test compound after serial dilution in DMSO and transfer in cell culture medium were added, and left on the cells for the duration of the experiment (continuous exposure, 100 μl drug overlay). Every plate included six untreated control wells and drug-treated groups. Duplicate values were obtained by testing single values per condition on one plate. […]

[2] = test system: DU-145 DOC10 prostate cancer cells; test: 3D clonogenic assay, docetaxel-resistant DU-145 DOC10; conditions: for Relative Resist to docetaxel: compared to parental DU-145 cells without elacridar; for Relative Resistance to docetaxel / Relative Resistance to cabazitaxel: compared to parental DU-145 cells without ritonavir; for IC50: Homo sapiens
Method: as §1, §2, §3, §4, §5

[3] = test system: 22Rv1 prostate cancer cells; test: 3D clonogenic assay, parental 22Rv1; conditions: for IC50: Homo sapiens
Method: as §1
as §2, with “Finally, 10 μl taken from the intermediate dilution plate were transferred to 140 μl of cells and medium per well of the final assay plate. Thus, the DMSO dilutions used for the mono- and the combination-treatment were diluted 1:330, and the DMSO concentration in the assay was 0.3% v/v.” left out
Tumour cell lines were grown at 37° C. in a humidified atmosphere with 5% CO2 in RPMI 1640 medium (Biochrom) supplemented with 10% (v/v) fetal calf serum and 50 μg/ml gentamicin. […] For the assay, cells were harvested using TrypLE and the percentage of viable cells was determined by the CASY TT cell counter (OMNI Life Science). […]

[4] = test system: 22Rv1 DOC8 prostate cancer cells; test: 3D clonogenic assay, docetaxel-resistant 22Rv1 DOC8; conditions: for Relative Resist to docetaxel: compared to parental 22Rv1 cells without elacridar; for IC50: Homo sapiens
Method: as §1, §2, §3, §4, §5

[5] = test system: DU-145 DOC10 prostate cancer cells; test: 2D culture docetaxel resistance, DU-145 DOC10 vs DU-145; conditions: 2D setup, DU-145 cells exposed to docetaxel for 3 months
[6] = test system: 22Rv1 DOC8 prostate cancer cells; test: 2D culture docetaxel resistance, 22Rv1 DOC8 vs 22Rv1; conditions: 2D setup, 22Rv1 cells exposed to docetaxel for 3 months

CC(=O)O[C@@]12CO[C@@H]1C[C@H](O)[C@@]1(C)C(=O)[C@H](O)C3=C(C)[C@@H](OC(=O)[C@H](O)[C@@H](NC(=O)OC(C)(C)C)c4ccccc4)C[C@@](O)([C@@H](OC(=O)c4ccccc4)[C@H]21)C3(C)C [docetaxel]
IC50 ([1]; DU-145, DU-145, 0.3 μM elacridar, read-out: IC50 value of docetaxel): 1.1 nM | IC50 ([1]; DU-145, DU-145, 1 μM elacridar, read-out: IC50 value of docetaxel): 1.1 nM | IC50 ([1]; DU-145, DU-145, 1 μM ritonavir, read-out: IC50 value of docetaxel): 1.8 nM | IC50 ([1]; DU-145, DU-145, 10 μM ritonavir, read-out: IC50 value of docetaxel): 1.7 nM | IC50 ([1]; DU-145, DU-145, without elacridar (elacridar experiment), read-out: IC50 value of docetaxel): 1.1 nM | IC50 ([1]; DU-145, DU-145, without ritonavir, read-out: IC50 value of docetaxel): 2.9 nM | Relative Resist to docetaxel ([2]; DU-145 DOC10, 0.3 μM elacridar): 1.7 | Relative Resist to docetaxel ([2]; DU-145 DOC10, 1 μM elacridar): 1.5 | Relative Resistance to docetaxel ([2]; DU-145 DOC10, 1 μM ritonavir): 3.0 | fold lower IC50 value (increase in sensitivity to docetaxel) ([2]; DU-145 DOC10, 10 μM ritonavir): 3.4 fold | Relative Resistance to docetaxel ([2]; DU-145 DOC10, 10 μM ritonavir): 1.0 | fold lower IC50 value (increase in sensitivity) ([2]; DU-145 DOC10, 10 μM ritonavir, cabazitaxel experiment (FIG. 10)): 2.5 fold | Relative Resist to docetaxel ([2]; DU-145 DOC10 without elacridar): 11 | Relative Resistance to docetaxel ([2]; DU-145 DOC10 without ritonavir, 3D setup): 3.3 | IC50 ([2]; DU-145, DU-145 DOC10, 0.3 μM elacridar, read-out: IC50 value of docetaxel): 1.9 nM | IC50 ([2]; DU-145, DU-145 DOC10, 1 μM elacridar, read-out: IC50 value of docetaxel): 1.6 nM | IC50 ([2]; DU-145, DU-145 DOC10, 1 μM ritonavir, read-out: IC50 value of docetaxel): 8.8 nM | IC50 ([2]; DU-145, DU-145 DOC10, 10 μM ritonavir, read-out: IC50 value of docetaxel): 2.8 nM | IC50 ([2]; DU-145, DU-145 DOC10, without elacridar (elacridar experiment), read-out: IC50 value of docetaxel): 11.7 nM | IC50 ([2]; DU-145, DU-145 DOC10, without ritonavir, read-out: IC50 value of docetaxel): 9.5 nM | IC50 ([3]; 22Rv1, without elacridar, from previously performed experiment, read-out: IC50 value of docetaxel): 1.3 nM | fold decrease of relative IC50 value of docetaxel ([4]; 31.6 μM ritonavir, cell line not given): 84 fold | resistance to docetaxel, fold ([4]; 3D setup (clonogenic assay), 22Rv1 DOC8 vs parental): 42 fold | Relative Resist to docetaxel ([4]; 22Rv1 DOC8, 0.3 μM elacridar): 1.1 | Relative Resist to docetaxel ([4]; 22Rv1 DOC8, 1 μM elacridar): 1 | fold lower IC50 value (increase in sensitivity) ([4]; 22Rv1 DOC8, 32 μM ritonavir, cabazitaxel experiment (FIG. 12)): 14 fold | fold lower IC50 value (increase in sensitivity to docetaxel) ([4]; 22Rv1 DOC8, 0.3 and 1 μM elacridar): 100 fold | Relative Resist to docetaxel ([4]; 22Rv1 DOC8 without elacridar): 103 | IC50 ([4]; 22Rv1, 31.6 μM ritonavir, cell line not given, read-out: relative IC50 value of docetaxel): 2.6 nM | IC50 ([4]; 22Rv1, 22Rv1 DOC8, 0.3 μM elacridar, read-out: IC50 value of docetaxel): 1.4 nM | IC50 ([4]; 22Rv1, 22Rv1 DOC8, 1 μM elacridar, read-out: IC50 value of docetaxel): 1.3 nM | IC50 ([4]; 22Rv1, 22Rv1 DOC8, 32 μM ritonavir, read-out: Docetaxel IC50 value): 3 nM | IC50 ([4]; 22Rv1, 22Rv1 DOC8, without elacridar (elacridar experiment), read-out: IC50 value of docetaxel): 134 nM | IC50 ([4]; 22Rv1, 22Rv1 DOC8, without ritonavir, read-out: Docetaxel IC50 value): 202 nM | IC50 ([4]; 22Rv1, without ritonavir, cell line not given, read-out: relative IC50 value of docetaxel): 219 nM | resistance to docetaxel: fold increase in IC50 value compared to parental, untreated cells [5]: ~20 fold and 21 fold and 22 fold | resistance to docetaxel: fold increase in IC50 value compared to parental, untreated cells [6]: > 100 fold and 105 fold and 134 fold

CC(C)c1nc(CN(C)C(=O)N[C@H](C(=O)N[C@@H](Cc2ccccc2)C[C@H](O)[C@H](Cc2ccccc2)NC(=O)OCc2cncs2)C(C)C)cs1 [ritonavir]
ritonavir concentration that inhibits growth ([1]; DU145, ritonavir alone): ≥ 10 µM | reversal of cabazitaxel resistance ([2]; DU145 DOC10, by ritonavir): reverses cabazitaxel resistance | ritonavir concentration that inhibits growth ([2]; DU145 DOC10, ritonavir alone): ≥ 10 µM | reversal of docetaxel resistance ([2]; DU-145 DOC10, by ritonavir): reverses docetaxel resistance | tumour colony formation ([4]; 100 μM ritonavir, cell line not given): inhibited tumour colony formation completely | reversal of cabazitaxel resistance ([4]; 22Rv1 DOC8, by ritonavir): completely reverted; also recorded: reverses cabazitaxel resistance | reversal of docetaxel resistance ([4]; 22Rv1 DOC8, by ritonavir): reverses docetaxel resistance

COc1cc2c(cc1OC)CN(CCc1ccc(NC(=O)c3cccc4c(=O)c5cccc(OC)c5[nH]c34)cc1)CC2 [elacridar]
reversal of docetaxel resistance ([2]; DU-145 DOC10, by elacridar): reverses docetaxel resistance | reversal of docetaxel resistance ([4]; 22Rv1 DOC8, by elacridar): reverses docetaxel resistance

CO[C@H]1C(=O)[C@]2(C)[C@@H](OC)C[C@H]3OC[C@@]3(OC(C)=O)[C@H]2[C@H](OC(=O)c2ccccc2)[C@]2(O)C[C@H](OC(=O)[C@H](O)[C@@H](NC(=O)OC(C)(C)C)c3ccccc3)C(C)=C1C2(C)C [cabazitaxel]
tumour cell growth inhibition, monotherapy ([1]; DU-145): inhibited tumour cell growth in a concentration dependent manner | IC50 ([1]; DU-145, DU145, 10 μM ritonavir, read-out: IC50 value of cabazitaxel): 0.3 nM | IC50 ([1]; DU-145, DU145, without ritonavir, read-out: IC50 value of cabazitaxel): 0.6 nM | Relative Resistance to cabazitaxel ([2]; DU145 DOC10, 10 μM ritonavir): 1 | Relative Resistance to cabazitaxel ([2]; DU145 DOC10 without ritonavir): 2.5 | tumour cell growth inhibition, monotherapy ([2]; DU-145 DOC10): inhibited tumour cell growth in a concentration dependent manner | IC50 ([2]; DU-145, DU145 DOC10, 10 μM ritonavir, read-out: IC50 value of cabazitaxel): 0.6 nM | IC50 ([2]; DU-145, DU145 DOC10, without ritonavir, read-out: IC50 value of cabazitaxel): 1.5 nM | shift of the IC50 value of cabazitaxel, monotherapy ([2]; printed: DU-145 DOC8 vs. DU-145): 2.7 fold | tumour cell growth inhibition, monotherapy ([3]; 22Rv1): inhibited tumour cell growth in a concentration dependent manner | IC50 ([3]; 22Rv1, without ritonavir, read-out: IC50 value of cabazitaxel): 0.7 nM | tumour cell growth inhibition, monotherapy ([4]; 22Rv1 DOC8): inhibited tumour cell growth in a concentration dependent manner | Relative Resistance to cabazitaxel ([4]; 22Rv1 DOC8 without ritonavir, compared to parental 22Rv1 cells without ritonavir): 14 | IC50 ([4]; 22Rv1, 22Rv1 DOC8, 10 μM ritonavir, read-out: IC50 value of cabazitaxel): 5.2 nM | IC50 ([4]; 22Rv1, 22Rv1 DOC8, 32 μM ritonavir, read-out: IC50 value of cabazitaxel): 0.7 nM | IC50 ([4]; 22Rv1, 22Rv1 DOC8, without ritonavir, read-out: IC50 value of cabazitaxel): 9.5 nM | fold higher relative IC50 value of cabazitaxel, monotherapy ([4]; printed: for 22Rv1 compared to 22Rv1): 14.5 fold
